Activity calls are given as the source filed them. The calls are words filed in the database; no cut-off is given here.
Legend:
[1] = molecular target: T1, Sphingosine 1-phosphate receptor 3 (Homo sapiens, UniProt Q99500); test: Agonist activity at human S1P3R expressed in CHO cells at 2.5 uM by Ca(2+) mobilization assay relative to S1P; format: functional, cell-based
[2] = molecular target: T2, Sphingosine 1-phosphate receptor 1 (Homo sapiens, UniProt P21453); test: Induction of human GFP-tagged chimeric S1P1R internalization in human U2Os cells by fluorescence microscopy; format: cell-based
T2 sequence (P21453 whole entry): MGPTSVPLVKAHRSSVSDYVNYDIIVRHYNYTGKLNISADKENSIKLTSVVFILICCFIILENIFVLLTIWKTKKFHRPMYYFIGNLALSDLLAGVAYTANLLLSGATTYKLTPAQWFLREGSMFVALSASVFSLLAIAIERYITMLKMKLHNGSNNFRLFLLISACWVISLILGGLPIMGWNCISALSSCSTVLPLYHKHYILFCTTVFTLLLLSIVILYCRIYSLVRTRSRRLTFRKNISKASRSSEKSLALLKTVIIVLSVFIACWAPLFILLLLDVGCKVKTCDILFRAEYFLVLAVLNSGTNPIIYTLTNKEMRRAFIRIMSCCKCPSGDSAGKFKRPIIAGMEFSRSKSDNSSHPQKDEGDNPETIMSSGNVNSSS

[3] = molecular target: T2, Sphingosine 1-phosphate receptor 1; test: Induction of human GFP-tagged chimeric S1P1R internalization in human U2Os cells by fluorescence microscopy relative to 1-(4-(6-benzylbenzofuran-2-yl)-3-fluorobenzyl)azetidine-3-carboxylic acid; format: cell-based
[4] = molecular target: T1, Sphingosine 1-phosphate receptor 3; test: Agonist activity at human S1P3R expressed in CHO cells by Ca(2+) mobilization assay; format: functional, cell-based
[5] = molecular target: T1, Sphingosine 1-phosphate receptor 3; test: Agonist activity at human S1P3R expressed in CHO cells by Ca(2+) mobilization assay relative to S1P; format: functional, cell-based; parameters: concentration or dose not given beside the values
Rattus norvegicus [6] = test: Lymphopenic activity in Lewis rat assessed as reduction in blood lymphocyte counts at 1 mg/kg, po administered as single dose measured 24 hrs post dose; format: functional, organism-based; parameters: dose 1 mg/kg
[7] = Half life in cynomolgus monkey at 1 mg/kg, iv or 1 mg/kg, po; format: ADME, organism-based, Macaca fascicularis; conditions: in vivo
[8] = Half life in Sprague-Dawley rat at 1 mg/kg, iv or 2 mg/kg, po; format: ADME, organism-based; conditions: in vivo
[9] = Oral bioavailability in cynomolgus monkey 1 mg/kg; format: ADME, organism-based, Macaca fascicularis; conditions: in vivo
[10] = Oral bioavailability in Beagle dog 1 mg/kg; format: ADME, organism-based, Canis lupus familiaris; conditions: in vivo
Rattus norvegicus [11] = test: Lymphopenic activity in Lewis rat assessed as reduction in blood lymphocyte counts at 0.1 mg/kg, po administered as single dose measured 24 hrs post dose; format: functional
[12] = Mean residence time in cynomolgus monkey at 1 mg/kg, iv or 1 mg/kg, po; format: ADME, organism-based, Macaca fascicularis; conditions: in vivo
[13] = Volume of distribution at steady state in Sprague-Dawley rat at 1 mg/kg, iv or 2 mg/kg, po; format: ADME, organism-based; conditions: in vivo, read-out: Vdss
Rattus norvegicus [14] = test: Toxicity in telemetered Sprague-Dawley rat assessed as effect on heart rate at 10 mg/kg, po; format: organism-based; parameters: dose 10 mg/kg, route oral; conditions: in vivo
[15] = Mean residence time in Beagle dog at 1 mg/kg, iv or 1 mg/kg, po; format: ADME, organism-based, Canis lupus familiaris; conditions: in vivo
[16] = molecular target: T3, Sphingosine 1-phosphate receptor 4 (Homo sapiens) (UniProt O95977); test: Agonist activity at human S1P4R expressed in CHO cells by Ca(2+) mobilization assay; format: functional, cell-based
T3 sequence (whole entry): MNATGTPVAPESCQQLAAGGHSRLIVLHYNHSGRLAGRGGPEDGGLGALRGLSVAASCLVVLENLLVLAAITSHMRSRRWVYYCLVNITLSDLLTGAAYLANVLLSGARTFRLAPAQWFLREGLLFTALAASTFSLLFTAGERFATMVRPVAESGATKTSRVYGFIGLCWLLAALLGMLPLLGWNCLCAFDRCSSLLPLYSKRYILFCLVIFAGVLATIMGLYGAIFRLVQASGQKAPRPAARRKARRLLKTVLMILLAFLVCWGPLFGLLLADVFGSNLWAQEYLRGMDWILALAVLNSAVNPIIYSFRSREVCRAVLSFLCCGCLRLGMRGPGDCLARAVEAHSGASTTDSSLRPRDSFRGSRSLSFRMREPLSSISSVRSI

Rattus norvegicus [17] = test: Toxicity in telemetered Sprague-Dawley rat assessed as change in mean arterial pressure at 10 mg/kg, po; format: organism-based, Artery; parameters: dose 10 mg/kg, route oral; conditions: in vivo
Rattus norvegicus [18] = test: Lymphopenic activity in orally dosed Lewis rat assessed as reduction in blood lymphocyte counts measured 24 hrs post dose; format: functional, organism-based
[19] = Clearance in Beagle dog at 1 mg/kg, iv or 1 mg/kg, po; format: ADME, organism-based, Canis lupus familiaris; conditions: in vivo
Rattus norvegicus [20] = test: Induction of delay in onset of disease in experimental autoimmune encephalitis Lewis rat model of multiple sclerosis at 20 ug/day, po administered at the time of immunization with guinea pig myelin basic protein
[21] = molecular target: T4, Sphingosine 1-phosphate receptor 5 (Homo sapiens, UniProt Q9H228); test: Agonist activity at human S1P5R expressed in CHO cells by Ca(2+) mobilization assay; format: functional, cell-based
T4 sequence (Q9H228 whole entry): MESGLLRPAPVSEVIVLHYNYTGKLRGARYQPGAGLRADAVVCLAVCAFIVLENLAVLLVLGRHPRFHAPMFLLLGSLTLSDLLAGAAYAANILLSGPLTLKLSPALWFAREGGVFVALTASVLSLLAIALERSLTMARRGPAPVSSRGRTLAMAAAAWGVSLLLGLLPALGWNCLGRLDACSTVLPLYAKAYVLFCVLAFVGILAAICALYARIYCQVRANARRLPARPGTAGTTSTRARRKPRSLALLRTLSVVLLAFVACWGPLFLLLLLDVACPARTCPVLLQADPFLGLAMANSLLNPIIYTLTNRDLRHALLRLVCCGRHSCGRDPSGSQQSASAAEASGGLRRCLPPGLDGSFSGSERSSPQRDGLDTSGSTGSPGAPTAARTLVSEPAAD

[22] = molecular target: Sphingosine 1-phosphate receptor 2 (Homo sapiens) (UniProt O95136); test: Agonist activity at human S1P2R expressed in CHO cells by Ca(2+) mobilization assay; format: functional, cell-based
Sequence of Sphingosine 1-phosphate receptor 2 (Homo sapiens) (O95136 whole entry): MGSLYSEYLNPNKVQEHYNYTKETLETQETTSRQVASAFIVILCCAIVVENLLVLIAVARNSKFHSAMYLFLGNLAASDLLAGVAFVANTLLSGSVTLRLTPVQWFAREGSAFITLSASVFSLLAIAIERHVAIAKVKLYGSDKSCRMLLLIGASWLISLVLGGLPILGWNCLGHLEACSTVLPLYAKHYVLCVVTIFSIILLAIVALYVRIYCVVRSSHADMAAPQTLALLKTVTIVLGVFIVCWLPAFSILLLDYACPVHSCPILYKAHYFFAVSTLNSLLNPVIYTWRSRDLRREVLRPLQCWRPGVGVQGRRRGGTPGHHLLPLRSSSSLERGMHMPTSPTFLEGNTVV

Rattus norvegicus [23] = test: Reduction of disease score in experimental autoimmune encephalitis Lewis rat model of multiple sclerosis at 2 ug/day, po administered at the time of immunization with guinea pig myelin basic protein
Rattus norvegicus [24] = test: Reduction of disease score in experimental autoimmune encephalitis Lewis rat model of multiple sclerosis at 20 ug/day, po administered at the time of immunization with guinea pig myelin basic protein
[25] = Mean residence time in Sprague-Dawley rat at 1 mg/kg, iv or 2 mg/kg, po; format: ADME, organism-based; conditions: in vivo
[26] = Volume of distribution at steady state in Beagle dog at 1 mg/kg, iv or 1 mg/kg, po; format: ADME, organism-based, Canis lupus familiaris; conditions: in vivo, read-out: Vdss
[27] = Mutagenic activity in Salmonella Typhimurium by Ames assay; format: toxicity; conditions: salmonella enterica subsp. enterica serovar typhimurium
[28] = Clearance in Sprague-Dawley rat at 1 mg/kg, iv or 2 mg/kg, po; format: ADME, organism-based; conditions: in vivo
[29] = Oral bioavailability in Sprague-Dawley rat 2 mg/kg; format: ADME, organism-based; conditions: in vivo
[30] = Volume of distribution at steady state in cynomolgus monkey at 1 mg/kg, iv or 1 mg/kg, po; format: ADME, organism-based, Macaca fascicularis; conditions: in vivo, read-out: Vdss
[31] = molecular target: T4, Sphingosine 1-phosphate receptor 5; test: Agonist activity at human S1P5R expressed in CHO cells by Ca(2+) mobilization assay relative to control; format: functional, cell-based
Rattus norvegicus [32] = test: Lymphopenic activity in Lewis rat assessed as reduction in blood lymphocyte counts at 0.03 mg/kg, po administered as single dose measured 24 hrs post dose; format: functional
[33] = Clearance in cynomolgus monkey at 1 mg/kg, iv or 1 mg/kg, po; format: ADME, organism-based, Macaca fascicularis; conditions: in vivo
[34] = molecular target: Voltage-gated inwardly rectifying potassium channel KCNH2 (Homo sapiens, UniProt Q12809); test: Inhibition of human ERG at 2.3 uM by patch-clamp method
Sequence of Voltage-gated inwardly rectifying potassium channel KCNH2 (Q12809 whole entry): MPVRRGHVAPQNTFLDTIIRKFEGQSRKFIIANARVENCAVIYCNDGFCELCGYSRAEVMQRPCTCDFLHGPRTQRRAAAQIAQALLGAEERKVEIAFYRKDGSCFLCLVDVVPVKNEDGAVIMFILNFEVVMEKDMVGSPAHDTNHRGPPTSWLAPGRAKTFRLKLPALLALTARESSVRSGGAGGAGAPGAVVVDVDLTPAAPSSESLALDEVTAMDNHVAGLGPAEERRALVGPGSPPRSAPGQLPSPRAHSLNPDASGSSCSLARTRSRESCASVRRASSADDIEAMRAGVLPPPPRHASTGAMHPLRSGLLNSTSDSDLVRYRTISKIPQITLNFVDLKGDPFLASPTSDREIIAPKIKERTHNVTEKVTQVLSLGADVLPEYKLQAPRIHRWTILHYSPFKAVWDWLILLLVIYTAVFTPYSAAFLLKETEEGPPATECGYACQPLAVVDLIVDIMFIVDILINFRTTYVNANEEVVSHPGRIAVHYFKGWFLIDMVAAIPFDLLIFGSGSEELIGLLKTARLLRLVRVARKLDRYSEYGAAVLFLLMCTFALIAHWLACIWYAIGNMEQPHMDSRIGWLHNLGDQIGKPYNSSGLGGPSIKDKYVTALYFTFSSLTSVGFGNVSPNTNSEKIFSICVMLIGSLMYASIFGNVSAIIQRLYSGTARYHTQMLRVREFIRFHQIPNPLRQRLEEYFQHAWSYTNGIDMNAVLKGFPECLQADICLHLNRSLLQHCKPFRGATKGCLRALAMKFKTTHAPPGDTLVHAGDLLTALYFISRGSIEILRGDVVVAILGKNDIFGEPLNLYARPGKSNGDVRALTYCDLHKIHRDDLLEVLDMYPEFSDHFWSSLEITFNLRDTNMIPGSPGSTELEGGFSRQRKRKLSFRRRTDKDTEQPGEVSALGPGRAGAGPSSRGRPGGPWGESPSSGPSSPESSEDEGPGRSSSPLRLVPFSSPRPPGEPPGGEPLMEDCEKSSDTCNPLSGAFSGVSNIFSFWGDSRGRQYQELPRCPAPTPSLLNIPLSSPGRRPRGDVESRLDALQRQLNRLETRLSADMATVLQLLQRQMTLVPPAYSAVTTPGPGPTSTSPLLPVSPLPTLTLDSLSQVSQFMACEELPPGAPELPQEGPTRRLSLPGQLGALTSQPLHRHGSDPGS

[35] = Half life in Beagle dog at 1 mg/kg, iv or 1 mg/kg, po; format: ADME, organism-based, Canis lupus familiaris; conditions: in vivo
[36] = Inhibition of Cytochrome P450; format: ADME

T1 sequence (Q99500 whole entry): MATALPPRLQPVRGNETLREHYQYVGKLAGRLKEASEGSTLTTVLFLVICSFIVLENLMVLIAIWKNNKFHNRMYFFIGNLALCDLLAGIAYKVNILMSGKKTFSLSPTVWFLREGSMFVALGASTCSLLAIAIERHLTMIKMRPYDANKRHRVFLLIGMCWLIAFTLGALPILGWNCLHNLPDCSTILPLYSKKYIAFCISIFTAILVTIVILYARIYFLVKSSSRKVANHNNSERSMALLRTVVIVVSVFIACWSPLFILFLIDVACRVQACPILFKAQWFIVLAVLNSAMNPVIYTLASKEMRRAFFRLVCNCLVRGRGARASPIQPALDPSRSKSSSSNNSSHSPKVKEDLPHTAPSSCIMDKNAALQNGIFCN

O=C(O)C1CN(Cc2ccc(-c3nc4ccc(C5(c6ccccc6)CCCC5)nc4s3)c(F)c2)C1
Efficacy [1]: 12% | EC50 [2]: 0.026 µM | Efficacy [3]: 76%

O=C(O)C1CN(Cc2ccc(-c3nc4ccc(Cc5ccccc5)cc4s3)c(F)c2)C1
EC50 [2]: 0.221 µM | EC50 [4]: 3.47 µM | Activity [5]: 50%

C[C@H](c1ccccc1)c1ccc2nc(-c3ccc(CN4CC(C(=O)O)C4)cc3F)sc2n1
EC50 [2]: 0.038 µM | EC50 [4]: 0.996 µM | Efficacy [3]: 87% | Activity [5]: 45%

C[C@@H](c1ccccc1)c1ccc2nc(-c3ccc(CN4CC(C(=O)O)C4)cc3F)sc2n1
EC50 [2]: 0.035 µM | EC50 [4]: 0.877 µM | Efficacy [3]: 99% | Activity [5]: 44%

O=C(O)C1CN(Cc2ccc(-c3nc4ccc(Cc5ccccc5)nc4s3)c(F)c2)C1
EC50 [2]: 0.199 µM | EC50 [4]: 0.478 µM | Efficacy [3]: 92% | Activity [5]: 94%

O=C(O)C1CN(Cc2ccc(-c3nc4cc(Cc5ccccc5)cnc4s3)c(F)c2)C1
EC50 [2]: 0.138 µM | EC50 [4]: 2.89 µM | Efficacy [3]: 125% | Activity [5]: 36%

O=C(O)C1CN(Cc2ccc(-c3nc4cnc(Cc5ccccc5)cc4s3)c(F)c2)C1
EC50 [2]: 3.98 µM | EC50 [4]: 5.46 µM | Efficacy [3]: 77% | Activity [5]: 64%

CC(C)(c1ccccc1)c1ccc2nc(-c3ccc(CN4CC(C(=O)O)C4)cc3F)sc2n1
EC50 [2]: 0.033 µM | EC50 [4]: 2.51 µM | Efficacy [3]: 103% | Activity [5]: 64%

O=C(O)C1CN(Cc2ccc(-c3nc4ccc(C5(c6ccccc6)CCC5)nc4s3)c(F)c2)C1
EC50 [2]: 0.119 µM | EC50 [4]: 1.31 µM | Efficacy [3]: 124% | Activity [5]: 68%

O=C(O)C1CN(Cc2ccc(-c3nc4cc(Cc5ccccc5)ccc4s3)c(F)c2)C1
inhibition (Rattus norvegicus [6]): Active | Efficacy [3]: 102% | Activity [5]: 24%

O=C(O)C1CN(Cc2ccc(-c3nc4ccc(C5(c6ccccc6)CC5)cc4s3)c(F)c2)C1
EC50 [2]: 0.038 µM | EC50 [4]: 4.67 µM | Efficacy [3]: 93% | Activity [5]: 56%

O=C(O)C1CN(Cc2ccc(-c3nc4ccc(C5(c6ccccc6)CC5)nc4s3)c(F)c2)C1
half-life [7]: 24 h | half-life [8]: 5.9 h | bioavailability [9]: 34% | bioavailability [10]: 41% | inhibition in vivo at 0.1 mg/kg (Rattus norvegicus [11]): 65% | MRT [12]: 4.7 h | Vd [13]: 1.8 L/kg | Activity (Rattus norvegicus [14]): Non-toxic | MRT [15]: 17 h | Activity [16]: inactive | Activity (Rattus norvegicus [17]): Non-toxic | inhibition (Rattus norvegicus [18]): Dose-dependent effect | clearance [19]: 1.18 mL/min/kg | Activity (Rattus norvegicus [20]): Active | EC50 [21]: 0.029 µM | Activity [22]: inactive | Activity (Rattus norvegicus [23]): inactive | Activity (Rattus norvegicus [24]): Active | MRT [25]: 10 h | Vd [26]: 1.2 L/kg | Activity [27]: Non-toxic | Efficacy [3]: 98% | clearance [28]: 3 mL/min/kg | bioavailability [29]: 64% | Vd [30]: 2.3 L/kg | Efficacy [31]: 50% | inhibition in vivo at 0.03 mg/kg (Rattus norvegicus [32]): 45% | clearance [33]: 8.33 mL/min/kg | Activity [5]: 26% | inhibition (INH) [34]: Not Active | half-life [35]: 38 h | inhibition (INH) [36]: Not Active

O=C(O)C1CN(Cc2ccc(-c3nc4cc(Cc5ccccc5)ncc4s3)c(F)c2)C1
EC50 [2]: 0.429 µM | EC50 [4]: > 25 µM | Efficacy [3]: 115%

O=C(O)C1CN(Cc2ccc(-c3nc4nc(Cc5ccccc5)ccc4s3)c(F)c2)C1
EC50 [2]: 0.144 µM | EC50 [4]: 10.1 µM | Efficacy [3]: 106% | Activity [5]: 63%

O=C(O)C1CN(Cc2ccc(-c3nc4ncc(Cc5ccccc5)cc4s3)c(F)c2)C1
EC50 [2]: 1.6 µM | EC50 [4]: > 25 µM | Efficacy [3]: 75%

O=C(O)C1CN(Cc2ccc(-c3nc4ccc(C5(c6ccccc6)CCCCC5)nc4s3)c(F)c2)C1
EC50 [2]: 0.033 µM | EC50 [4]: 0.836 µM | Efficacy [3]: 108% | Activity [5]: 41%

— ChEMBL document CHEMBL1649108, “Discovery of AMG 369, a Thiazolo[5,4-b]pyridine Agonist of S1P1 and S1P5” (ACS Med Chem Lett, 2011)
